Measurements: ChEMBL document CHEMBL5576102, “Characterization of Sesquiterpene Dimers from the Flowers of Inula japonica and the Structural Revisions of Related Compounds” (J Nat Prod, 2024)

Assays:
RAW264.7 [1] = experiment: Cytotoxicity against mouse RAW264.7 cells upto 50 uM measured after 48 hrs by MTT assay; assay type: toxicity, cell-based; conditions: raw264.7, 48 h
RAW264.7 [2] = experiment: Anti-inflammatory activity in LPS-stimulated mouse RAW264.7 cells assessed as inhibition of NO production measured after 48 hrs by Griess assay; assay type: functional, cell-based; conditions: RAW264.7, 48 h
RAW264.7 [3] = experiment: Cytotoxicity against mouse RAW264.7 cells upto 25 uM measured after 48 hrs by MTT assay; assay type: toxicity, cell-based; conditions: raw264.7, 48 h
RAW264.7 [4] = experiment: Cytotoxicity against mouse RAW264.7 cells at 6.25 to 3.125 uM measured after 48 hrs by MTT assay; assay type: toxicity, cell-based; conditions: raw264.7, 48 h, dose 6.25-3.125 µM

| IC50 (RAW264.7 [2]) | Structure (SMILES) | Activity (RAW264.7 [1]) | Activity (RAW264.7 [3]) | Activity (RAW264.7 [4]) |
| --- | --- | --- | --- | --- |
| > 50 µM | Cc1ccc([C@@]2(C(=O)O)CC[C@H](C(=O)O)c3cc([C@@H](C)CCCO)c(C)cc32)cc1[C@@H](C)CCCO | Non-Toxic | – | – |
| 5.73 µM | CC(=O)OCCC[C@H](C)C1=C(C)C[C@H]2OC(=O)[C@@]3(C[C@]45C(=C(C)[C@H]3[C@@H]4OC(C)=O)C[C@H]3[C@H](C[C@@H]5C)OC(=O)[C@H]3C)[C@H]2[C@@H]1O | – | Non-Toxic | – |
| > 50 µM | C=C1C[C@H]2OC(=O)[C@@]3(C[C@]45C(=C(C)[C@H]3[C@@H]4OC(C)=O)C[C@@H]3C(=C)C(=O)O[C@H]3C[C@@H]5C)[C@H]2C=C1[C@@H](C)CCCOC(C)=O | – | – | Non-Toxic |
| 7.82 µM | C=C1C(=O)O[C@H]2C[C@H](C)[C@@]34C[C@](C(=O)O)(c5ccc(C)c([C@@H](C)CCCO)c5)[C@@H](C(C)=C3C[C@H]12)[C@@H]4OC(C)=O | Non-Toxic | – | – |
| 10 µM | C=C1C(=O)O[C@H]2C[C@H](C)[C@@]34C[C@@]5(C(=O)O[C@@H]6C[C@@](C)(O)C([C@@H](C)CCCO)=C[C@@H]65)[C@@H](C(C)=C3C[C@H]12)[C@@H]4OC(C)=O | Non-Toxic | – | – |
| > 50 µM | CC(=O)O[C@H]1[C@@H]2C(C)=C3C[C@H]4[C@H](C[C@H](C)[C@@]31C[C@@]21C(=O)O[C@@H]2C[C@@](C)(O)C([C@@H](C)CCCO)=C[C@@H]21)OC(=O)[C@H]4C | Non-Toxic | – | – |
| 4.07 µM | C=C1C(=O)O[C@H]2C[C@H](C)[C@@]34C[C@@]5(C(=O)O[C@@H]6C[C@](C)(O)C([C@@H](C)CCCOC(C)=O)=C[C@@H]65)[C@@H](C(C)=C3C[C@H]12)[C@@H]4OC(C)=O | – | Non-Toxic | – |
| > 50 µM | CC(=O)OCCC[C@H](C)c1cc([C@@]2(C(=O)O)CC[C@H](C(=O)O)c3cc([C@@H](C)CCCO)c(C)cc32)ccc1C | Non-Toxic | – | – |
| > 50 µM | CC(=O)OCCC[C@H](C)c1cc([C@@]2(C(=O)O)CC[C@H](C(=O)O)c3cc([C@@H](C)CCCOC(C)=O)c(C)cc32)ccc1C | Non-Toxic | – | – |
| > 50 µM | CC(=O)O[C@H]1[C@@H]2C(C)=C3C[C@H]4[C@H](C[C@H](C)[C@@]31C[C@]2(C(=O)O)c1ccc(C)c([C@@H](C)CCCO)c1)OC(=O)[C@H]4C | Non-Toxic | – | – |
| 44 µM | C[C@]12CCC(=O)C=C1CC[C@@H]1[C@@H]2[C@@H](O)C[C@@]2(C)[C@H]1CC[C@]2(O)C(=O)COC(=O)CCC(=O)O [HYDROCORTISONE SODIUM SUCCINATE] | – | – | – |
